The test system of series [1] is Conduct Disorder, Childhood Onset, Moderate Severity and Attention Deficit Hyperactivity Disorder (ADHD), Combined Type. Put plainly: Case report: patient with Conduct Disorder and ADHD treated with successive drugs. The source says:
A person was diagnosed with ‘Conduct Disorder, Childhood Onset, Moderate Severity’ and ‘Attention Deficit Hyperactivity Disorder (ADHD), Combined Type’ (DSM-IV diagnostic criteria).

The nature of series [2]: Drug level printed in brackets after the dose in the case report. The settings on record: valproate 750 mg.
Description: In addition, they were given lithium at gradually increasing doses up to 1125 mg/day (1.7 ng/mL).

The values below come from patent US7338948B2, “Use of quetiapine” (AstraZeneca AB, priority 2000, dated 2008).

Consider `OCCOCCN1CCN(C2=Nc3ccccc3Sc3ccccc32)CC1` [Quetiapine, 11-(4-[2-(2-hydroxyethoxy)ethyl]-1-piperazinyl)dibenzo[b,f][1.4]thiazepine], for which, in series [1] (after 90 days on quetiapine 1000 mg/day and amphetamine-based product 45 mg/day), the “clinical response after 90 days” value is “complete resolution of previous symptoms”. Further, the “clinical response (psychiatric symptoms)” value in series [1] (quetiapine 1000 mg/day (400 mg morning, 600 mg evening) with amphetamine-based product 45 mg/day) is “dramatic reduction of their psychiatric symptoms”. In addition, the “clinical response (aggression)” value in series [1] (quetiapine increased from 50 to 300 mg/day, with amphetamine-based product 60 mg/day) is recorded as “continued to demonstrate aggression”.

In turn, `CCCC(CCC)C(=O)O` [Valproate] yielded a drug level in series [2] of 115 ng/mL.

Take `COC(=O)C(c1ccccc1)C1CCCCN1` (centres unmarked) [methylphenidate]: the “clinical response (earlier treatment)” value in series [1] (methylphenidate taken before the amphetamine-based product and imipramine) was “eventually became ineffective”.
